Reference: patent publication US12268674B2, “Mi-2β inhibitor as an immunotherapy agent” (BioVentures, LLC, priority 2021, dated 2025)
Like-named read-outs stand apart in the source and are kept apart here.

Columns and labels:
SARS = SARS (Homo sapiens, UniProt P49591); assay type: binding; settings: SEQ ID NO: 190, ATP BS
AFG3L2 = target: T1, AFG3L2 (Homo sapiens, UniProt Q9Y4W6); experiment: ATPase profile (ATP acyl phosphate probe); assay type: binding; settings: AFG3L2, SEQ ID NO: 29, ATP BS
T1 construct: to get the native cell lysate; host or cells: A375 cell lysate

[1] = system: panel of 233 diverse ATPases; experiment: ATP acyl phosphate probe assay, ATPase profile in native A375 cell lysates; assay type: binding; settings: 1 μM
B16F10 cells = experiment: Co-culture assay of B16F10 cells with activated Pmel-1 T cells; assay type: cell-based, mouse; settings: 25 μM; IFN-γ pretreated; activated Pmel-1 T cells 1:1, three days
Method: Pmel-1 TCR transgenic mice were purchased from Jackson Laboratory (stock #005023). The CD8 T cells were isolated from spleen and lymph nodes from Pmel-1 transgenic mice using the CD8a^+ T Cell Isolation Kit, mouse (Miltenyi Biotec, Order no: 130-104-075) according to the manufacturer's protocol. Freshly isolated CD8 T cells were stimulated with anti-CD3/CD28 beads (Thermo Fisher Scientific #11452D) for 3 days, and then the recombinant mouse IL-2 (Biolegend, #575406) was added at 20 ng/ml. After 6 days activation, T cells were used for co-culture with B16F10 cells.
B16F10 cells with shMi-2β or shScrambles were transfected with GFP expression vector pcDNA3-EGFP (Plasmid #13031), and the stable cell line was selection with 800 μg/mL G418. For in vitro validation, Mi-2β-deficient B16F10 cells (GFP positive) were mixed with control B16F10 cells (GFP negative) at a 1:1 ratio. The cells were treated with 10 ng/ml of IFN-γ for 24 hours, and then co-cultured with activated Pmel-1 T cells. After three days, the depletion of Mi-2β knockdown B16F10 cells was determined by FACS, comparing the percentage of knockdown cells (GFP positive) to control B16F10 cells (GFP negative).

MCCC1 = target: T2, MCCC1 (Homo sapiens, UniProt Q96RQ3); experiment: ATPase profile (ATP acyl phosphate probe); assay type: binding
T2 construct: to get the native cell lysate; endogenous in cells; host or cells: A375

HSP90AB1, HSP90AB3P = target: T3, HSP90AB1, HSP90AB3P (Homo sapiens, UniProt P08238); experiment: ATPase profile (ATP acyl phosphate probe); assay type: binding; settings: SEQ ID NO: 98, ATP BS
T3 construct: to get the native cell lysate; endogenous in cells; host or cells: A375

AK5 = target: T4, AK5 (Homo sapiens, UniProt Q9Y6K8); experiment: ATPase profile (ATP acyl phosphate probe); assay type: binding; settings: AK5, SEQ ID NO: 36, ATP BS
T4 construct: to get the native cell lysate; host or cells: A375 cell lysate

CCT8 = target: T5, CCT8 (Homo sapiens, UniProt P50990); experiment: ATPase profile (ATP acyl phosphate probe); assay type: binding; settings: CCT8, SEQ ID NO: 56, ATP BS
T5 construct: to get the native cell lysate; host or cells: A375 cell lysate

TOR2A, TOR2X = experiment: ATPase profile (ATP acyl phosphate probe); assay type: binding; settings: SEQ ID NO: 205, ATP BS
QARS = target: T6, QARS (Homo sapiens, UniProt P47897); experiment: ATPase profile (ATP acyl phosphate probe); assay type: binding; settings: SEQ ID NO: 180, ATP BS
T6 construct: to get the native cell lysate; endogenous in cells; host or cells: A375 cell lysate

TOR4A = target: T7, TOR4A (Homo sapiens, UniProt Q9NXH8); experiment: ATPase profile (ATP acyl phosphate probe); assay type: binding; settings: SEQ ID NO: 207, ATP BS
T7 construct: to get the native cell lysate; endogenous in cells; host or cells: A375 cell lysate

B16F10 melanoma graft = experiment: Syngeneic melanoma graft mouse model
Method: To test Z36-MP5 function in syngeneic mouse model, B16F10 cells (1.5×105) were mixed with BD matrigel (Matrix Growth Factor Reduced) (BD, 354230) in 100 μl PBS, and then mouse subcutaneous injection and tumor graft monitor were performed as described above. Except that vehicle [5% (w/v) Kolliphor HS 15 (Sigma)] in normal saline or formulated 30 mg/kg Z36-MP5 was administered with i.p. injection once a day starting at day 6, together with i.p. injection of control IgG antibodies (10 mg/kg) or anti-PD-1 (RMP1-14, BioXCell, 10 mg/kg) on day 6, 9, 12, 15 and 18. The mice were euthanized after indicated days or when the allowable endpoint size (1 cm^3) was reached.
Tumors were minced with scissors, and then digested with the digestion buffer (RPMI 1640 medium, 5% FBS, 1% penicillin-streptomycin, 25 mM HEPES, and 300 U collagenase (Sigma C0130)) on a shaker at 37° C. for 2 hours. Single cells were prepared through a 70 m cell strainer. Erythrocytes were removed by incubation in red blood cell lysis buffer (R7757, Sigma) at room temperature for 5 min. The cells were prepared in PBS (with concentration of ˜2×10^7) for studies.
The single-cell suspension were fixed with 2% paraformaldehyde solution (J19943K2, Thermo Scientific). And then the cells were stained with the follow antibodies: anti-mouse CD45 APC (104, BD pharmingen, 561875), anti-mouse CD3e PE (145-2C11, BD pharmingen, 553063), anti-mouse CD4 FITC (RM4-5, BD pharmingen, 553046), anti-mouse CD4 PE/Cy7 (GK1.5, BioLegend, 100421), anti-mouse CD8 FITC (53-6.7, BD pharmingen, 553031), anti-mouse CD8a APC/Cy7 (53-6.7, BioLegend 100713), anti-mouse IFN-γ PE (XMG1.2, eBioscience, 12731181), anti-mouse CD69 PE (H1.2F3, Biolegend, 104508), anti-mouse CD25 Alexa Fluor 488 (PC61.5, eBioscience, 53025182), anti-mouse CD107a-V450 (1D4B, BD, 560648), anti-human/mouse granzyme B FITC (GB 11, BioLegend, 515403). The regulatory T cells in TILs were stained with the Mouse Regulatory T Cell Staining kit #1 (88-8111, ThermoFisher Scienctific), with antibodies of anti-mouse CD4 FITC (RM4-5), anti-mouse CD25 APC (PC61.5) anti-mouse Foxp3 PE (FJK-16s). BD LSRII was used for data acquisition and FlowJo was used for data analysis.

DERA = target: T8, DERA (Homo sapiens, UniProt Q9Y315); experiment: ATPase profile (ATP acyl phosphate probe); assay type: binding; settings: SEQ ID NO: 71, ATP BS
T8 construct: endogenous in cells; host or cells: A375 cell lysate

MCM6 = target: T9, MCM6 (Homo sapiens, UniProt P33991+Q14566); experiment: ATPase profile (ATP acyl phosphate probe); assay type: binding; settings: read-out: Inhibition (%) by 1 μM Z36-MP5
T9 construct: to get the native cell lysate; endogenous in cells; host or cells: A375

MMAB = target: T10, MMAB (Homo sapiens, UniProt Q96EY8); experiment: ATPase profile (ATP acyl phosphate probe); assay type: binding; settings: SEQ ID NO: 124, ATP BS
T10 construct: to get the native cell lysate; endogenous in cells; host or cells: A375

GARS = target: T11, GARS (Homo sapiens, UniProt P41250); experiment: ATPase profile (ATP acyl phosphate probe); assay type: binding; settings: SEQ ID NO: 79, ATP BS
T11 construct: endogenous in cells; host or cells: A375 cell lysate

ABCF2 = target: T12, ABCF2 (Homo sapiens, UniProt Q9UG63); experiment: ATPase profile (ATP acyl phosphate probe); assay type: binding
T12 construct: to get the native cell lysate; host or cells: A375 cell lysate

PCCA = target: T13, PCCA (Homo sapiens, UniProt P05165); experiment: ATPase profile (ATP acyl phosphate probe); assay type: binding
T13 construct: to get the native cell lysate; endogenous in cells; host or cells: A375

HSPA8 = target: T14, HSPA8 (Homo sapiens, UniProt P11142); experiment: ATPase profile (ATP acyl phosphate probe); assay type: binding
T14 construct: to get the native cell lysate; endogenous in cells; host or cells: A375

PFAS = target: T15, PFAS (Homo sapiens, UniProt O15067); experiment: ATPase profile (ATP acyl phosphate probe); assay type: binding; settings: SEQ ID NO: 157, ATP BS
T15 construct: to get the native cell lysate; endogenous in cells; host or cells: A375 cell lysate

PEX1 = target: T16, PEX1 (Homo sapiens, UniProt O43933); experiment: ATPase profile (ATP acyl phosphate probe); assay type: binding; settings: PEX1, SEQ ID NO: 156, ATP BS
T16 construct: to get the native cell lysate; endogenous in cells; host or cells: A375 cell lysate

TK2 = target: T17, TK2 (Homo sapiens, UniProt O00142); experiment: ATPase profile (ATP acyl phosphate probe); assay type: binding; settings: TK2, SEQ ID NO: 201, ATP BS
T17 construct: to get the native cell lysate; endogenous in cells; host or cells: A375 cell lysate

ATIC = target: T18, ATIC (Homo sapiens, UniProt P31939); experiment: ATPase profile (ATP acyl phosphate probe); assay type: binding; settings: SEQ ID NO: 47, ATP BS
T18 construct: to get the native cell lysate; host or cells: A375 cell lysate

PSMC5 = target: T19, PSMC5 (Homo sapiens, UniProt P62195); experiment: ATPase profile (ATP acyl phosphate probe); assay type: binding; settings: PSMC5, SEQ ID NO: 177, ATP BS
T19 construct: to get the native cell lysate; endogenous in cells; host or cells: A375 cell lysate

[2] = Z36-MP5 30 mg/kg combined with anti-PD-1 10 mg/kg, B16F10 graft

T13 sequence (P05165 53-728): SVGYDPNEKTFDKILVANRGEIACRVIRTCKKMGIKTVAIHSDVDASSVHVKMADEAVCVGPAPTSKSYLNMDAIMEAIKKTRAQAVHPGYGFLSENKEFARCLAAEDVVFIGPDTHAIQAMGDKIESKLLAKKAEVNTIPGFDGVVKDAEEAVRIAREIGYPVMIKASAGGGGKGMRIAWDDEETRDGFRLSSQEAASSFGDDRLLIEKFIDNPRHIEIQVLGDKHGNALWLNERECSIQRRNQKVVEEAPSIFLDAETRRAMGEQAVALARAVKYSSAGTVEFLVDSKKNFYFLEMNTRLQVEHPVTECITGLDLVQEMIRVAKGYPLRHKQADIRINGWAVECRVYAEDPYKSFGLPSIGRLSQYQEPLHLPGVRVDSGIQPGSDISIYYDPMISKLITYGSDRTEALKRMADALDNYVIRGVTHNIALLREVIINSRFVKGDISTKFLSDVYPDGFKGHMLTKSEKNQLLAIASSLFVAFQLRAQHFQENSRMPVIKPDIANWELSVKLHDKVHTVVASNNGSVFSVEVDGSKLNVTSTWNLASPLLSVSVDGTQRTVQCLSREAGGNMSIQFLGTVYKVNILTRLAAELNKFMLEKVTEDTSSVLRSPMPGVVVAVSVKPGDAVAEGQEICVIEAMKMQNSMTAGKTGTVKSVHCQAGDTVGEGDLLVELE
T13 sequence (P05166 29-539 partner): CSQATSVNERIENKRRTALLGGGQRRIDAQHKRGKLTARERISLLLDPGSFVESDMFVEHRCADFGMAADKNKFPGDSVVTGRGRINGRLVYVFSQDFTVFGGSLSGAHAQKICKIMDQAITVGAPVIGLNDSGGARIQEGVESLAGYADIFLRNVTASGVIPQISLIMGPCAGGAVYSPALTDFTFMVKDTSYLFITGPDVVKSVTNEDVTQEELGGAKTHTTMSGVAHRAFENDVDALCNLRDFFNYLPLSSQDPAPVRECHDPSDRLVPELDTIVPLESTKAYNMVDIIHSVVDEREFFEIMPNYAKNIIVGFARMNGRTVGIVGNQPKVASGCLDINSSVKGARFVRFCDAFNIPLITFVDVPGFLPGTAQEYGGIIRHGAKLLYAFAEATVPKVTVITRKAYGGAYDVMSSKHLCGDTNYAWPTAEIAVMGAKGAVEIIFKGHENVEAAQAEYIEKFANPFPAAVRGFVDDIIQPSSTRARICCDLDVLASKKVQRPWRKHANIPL
T2 sequence (Q96RQ3 48-725 limits assumed): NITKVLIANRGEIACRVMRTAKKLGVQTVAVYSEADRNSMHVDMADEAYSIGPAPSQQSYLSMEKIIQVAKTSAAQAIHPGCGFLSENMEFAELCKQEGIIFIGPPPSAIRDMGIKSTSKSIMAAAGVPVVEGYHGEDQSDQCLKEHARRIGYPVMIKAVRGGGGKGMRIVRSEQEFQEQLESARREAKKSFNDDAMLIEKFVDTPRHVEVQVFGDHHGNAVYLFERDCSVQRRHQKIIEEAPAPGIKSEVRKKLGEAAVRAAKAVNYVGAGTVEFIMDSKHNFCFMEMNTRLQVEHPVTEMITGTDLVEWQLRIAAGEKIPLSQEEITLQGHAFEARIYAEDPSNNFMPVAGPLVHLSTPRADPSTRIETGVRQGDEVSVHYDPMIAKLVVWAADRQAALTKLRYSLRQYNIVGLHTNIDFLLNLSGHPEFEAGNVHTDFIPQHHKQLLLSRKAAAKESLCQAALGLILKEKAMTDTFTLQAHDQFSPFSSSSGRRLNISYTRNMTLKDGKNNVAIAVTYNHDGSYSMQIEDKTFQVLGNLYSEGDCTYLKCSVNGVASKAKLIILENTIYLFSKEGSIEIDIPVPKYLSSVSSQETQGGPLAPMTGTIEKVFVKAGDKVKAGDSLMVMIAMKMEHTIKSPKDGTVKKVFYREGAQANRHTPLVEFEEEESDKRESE
T2 sequence (Q9HCC0 23-563 partner): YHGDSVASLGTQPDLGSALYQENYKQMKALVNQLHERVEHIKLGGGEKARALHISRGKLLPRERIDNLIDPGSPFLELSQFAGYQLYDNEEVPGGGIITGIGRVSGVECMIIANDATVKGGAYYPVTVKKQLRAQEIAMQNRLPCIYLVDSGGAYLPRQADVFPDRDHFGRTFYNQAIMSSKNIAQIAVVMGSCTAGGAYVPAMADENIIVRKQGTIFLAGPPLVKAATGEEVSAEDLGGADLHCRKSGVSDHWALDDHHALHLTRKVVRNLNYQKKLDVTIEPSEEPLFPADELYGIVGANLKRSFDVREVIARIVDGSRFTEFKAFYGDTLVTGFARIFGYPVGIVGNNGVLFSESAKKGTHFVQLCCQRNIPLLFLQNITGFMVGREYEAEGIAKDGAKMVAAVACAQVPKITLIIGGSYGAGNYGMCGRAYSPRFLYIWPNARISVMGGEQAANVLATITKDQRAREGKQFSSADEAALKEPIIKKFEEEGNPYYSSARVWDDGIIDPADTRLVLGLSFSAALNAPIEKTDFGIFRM
T14 sequence (P11142 whole entry): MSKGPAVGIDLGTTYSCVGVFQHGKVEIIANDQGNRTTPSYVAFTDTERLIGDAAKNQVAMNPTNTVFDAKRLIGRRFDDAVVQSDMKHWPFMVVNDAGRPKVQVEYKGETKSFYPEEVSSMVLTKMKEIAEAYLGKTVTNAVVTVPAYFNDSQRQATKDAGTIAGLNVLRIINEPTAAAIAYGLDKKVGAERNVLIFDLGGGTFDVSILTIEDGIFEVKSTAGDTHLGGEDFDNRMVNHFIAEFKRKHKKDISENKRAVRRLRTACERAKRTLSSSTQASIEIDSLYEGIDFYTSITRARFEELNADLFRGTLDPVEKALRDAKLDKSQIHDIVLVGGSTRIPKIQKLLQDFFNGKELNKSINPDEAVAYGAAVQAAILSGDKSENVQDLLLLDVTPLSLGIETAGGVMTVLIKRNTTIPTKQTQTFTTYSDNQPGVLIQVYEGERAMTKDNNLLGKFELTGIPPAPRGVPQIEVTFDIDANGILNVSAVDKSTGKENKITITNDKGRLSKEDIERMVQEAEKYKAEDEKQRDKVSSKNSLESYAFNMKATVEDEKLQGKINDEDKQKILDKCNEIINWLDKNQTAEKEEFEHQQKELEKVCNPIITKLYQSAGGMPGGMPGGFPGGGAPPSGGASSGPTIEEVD
T12 sequence (Q9UG63 whole entry): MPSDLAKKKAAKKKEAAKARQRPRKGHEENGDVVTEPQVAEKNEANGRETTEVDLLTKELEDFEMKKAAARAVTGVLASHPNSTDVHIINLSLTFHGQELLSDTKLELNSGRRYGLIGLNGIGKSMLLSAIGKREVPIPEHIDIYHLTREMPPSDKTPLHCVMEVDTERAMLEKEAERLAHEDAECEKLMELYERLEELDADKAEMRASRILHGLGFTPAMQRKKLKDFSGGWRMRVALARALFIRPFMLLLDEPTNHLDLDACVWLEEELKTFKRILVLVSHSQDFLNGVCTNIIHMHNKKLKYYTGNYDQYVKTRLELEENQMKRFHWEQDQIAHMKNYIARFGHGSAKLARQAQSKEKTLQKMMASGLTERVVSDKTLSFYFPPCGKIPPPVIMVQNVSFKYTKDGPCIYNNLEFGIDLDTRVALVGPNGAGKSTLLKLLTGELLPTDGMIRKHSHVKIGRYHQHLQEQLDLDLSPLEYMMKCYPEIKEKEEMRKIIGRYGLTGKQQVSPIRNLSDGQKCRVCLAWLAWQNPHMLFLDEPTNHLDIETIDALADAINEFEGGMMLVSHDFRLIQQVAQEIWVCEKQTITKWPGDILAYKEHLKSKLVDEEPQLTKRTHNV
T1 sequence (Q9Y4W6 67-797): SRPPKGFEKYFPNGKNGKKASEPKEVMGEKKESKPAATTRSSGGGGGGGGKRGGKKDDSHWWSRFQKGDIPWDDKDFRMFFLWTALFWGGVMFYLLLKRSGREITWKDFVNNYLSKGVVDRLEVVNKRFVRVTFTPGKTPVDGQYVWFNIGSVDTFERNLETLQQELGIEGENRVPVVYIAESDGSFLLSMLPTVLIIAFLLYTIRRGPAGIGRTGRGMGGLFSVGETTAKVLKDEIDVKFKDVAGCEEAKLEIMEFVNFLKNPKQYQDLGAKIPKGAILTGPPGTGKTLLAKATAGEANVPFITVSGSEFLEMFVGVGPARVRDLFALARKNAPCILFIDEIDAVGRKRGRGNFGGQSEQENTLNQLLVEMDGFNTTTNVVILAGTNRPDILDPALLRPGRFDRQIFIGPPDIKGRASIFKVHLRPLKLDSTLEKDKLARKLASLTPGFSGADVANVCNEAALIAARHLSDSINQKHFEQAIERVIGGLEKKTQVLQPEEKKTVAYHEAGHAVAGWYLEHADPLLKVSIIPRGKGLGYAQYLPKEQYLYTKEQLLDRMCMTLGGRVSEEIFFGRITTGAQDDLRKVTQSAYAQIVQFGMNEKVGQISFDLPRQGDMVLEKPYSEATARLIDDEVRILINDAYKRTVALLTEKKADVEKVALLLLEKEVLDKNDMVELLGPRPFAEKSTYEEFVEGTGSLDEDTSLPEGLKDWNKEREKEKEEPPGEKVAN
SARS, sequence (P49591 whole entry, looked up): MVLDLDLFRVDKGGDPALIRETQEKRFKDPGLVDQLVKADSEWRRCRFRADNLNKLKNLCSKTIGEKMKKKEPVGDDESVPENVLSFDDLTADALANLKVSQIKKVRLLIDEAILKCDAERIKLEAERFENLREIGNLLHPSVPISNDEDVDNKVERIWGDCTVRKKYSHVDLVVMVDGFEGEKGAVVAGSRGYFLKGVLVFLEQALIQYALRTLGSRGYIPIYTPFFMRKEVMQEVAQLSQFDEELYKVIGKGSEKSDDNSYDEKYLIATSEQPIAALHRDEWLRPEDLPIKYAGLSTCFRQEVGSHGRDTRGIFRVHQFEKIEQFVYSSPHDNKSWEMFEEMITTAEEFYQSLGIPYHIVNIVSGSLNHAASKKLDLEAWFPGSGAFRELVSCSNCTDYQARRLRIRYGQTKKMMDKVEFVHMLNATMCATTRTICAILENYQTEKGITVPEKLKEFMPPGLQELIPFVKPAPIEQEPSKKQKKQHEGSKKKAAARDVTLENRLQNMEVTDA

## Cn1c(=O)[nH]c2ccc(-c3cccc(C(=O)NC4CCn5ccnc5C4)c3)cc21 (stereo not drawn) [Z36-MP5, 3-(3-methyl-2-oxo-2,3-dihydro-1H-benzo[d]imidazol-5-yl)-N-(5,6,7,8-tetrahydroimidazo[1,2-a]pyridin-7-yl)benzamide]
SARS
  Inhibition (%) by 1 μM Z36-MP5: 3.57%
AFG3L2
  Inhibition (%) by 1 μM Z36-MP5: −4.85%
[1]
  inhibition against a panel of 233 diverse ATPases: less than 35%
B16F10 cells
  T cell-mediated killing of B16F10 cells: significantly induced
MCCC1; MCCC1, SEQ ID NO: 116, ATP BS
  Inhibition (%) by 1 μM Z36-MP5: −6.46%
MCCC1; MCCC1, SEQ ID NO: 117, ATP BS
  Inhibition (%) by 1 μM Z36-MP5: 4.45%
HSP90AB1, HSP90AB3P
  Inhibition (%) by 1 μM Z36-MP5: −16.94%
AK5
  Inhibition (%) by 1 μM Z36-MP5: 2.21%
CCT8
  Inhibition (%) by 1 μM Z36-MP5: 9.18%
TOR2A, TOR2X
  Inhibition (%) by 1 μM Z36-MP5: 0.38%
QARS
  Inhibition (%) by 1 μM Z36-MP5: −7.77%
TOR4A
  Inhibition (%) by 1 μM Z36-MP5: 5.38%
B16F10 melanoma graft; [2]
  mouse survival: extended mouse survival
  tumor growth: substantial inhibition
B16F10 melanoma graft; Z36-MP5 alone
  GZMB expression and activation markers CD69, IFN-γ, CD25 and CD107 in tumor-infiltrating CD8+ T cells: upregulation
B16F10 melanoma graft; Z36-MP5 alone, graft melanomas
  CD8+ T cell TILs: moderate increase
B16F10 melanoma graft; Z36-MP5 combined with anti-PD-1
  GZMB expression and activation markers CD69, IFN-γ, CD25 and CD107 in tumor-infiltrating CD8+ T cells: augmented
B16F10 melanoma graft; Z36-MP5 combined with anti-PD-1, graft melanomas
  CD8+ T cell TILs: augmented
B16F10 melanoma graft; individual or combinational treatments, graft melanomas
  population of CD4+ T cell and Treg cells: not changed significantly
B16F10 melanoma graft; treatment alone, B16F10 graft
  tumor growth or mouse survival: did not impact
DERA
  Inhibition (%) by 1 μM Z36-MP5: 6.01%
MCM6; MCM6, SEQ ID NO: 119, ATP BS
  inhibition at 1 µM: -5.23%
MCM6; MCM6, SEQ ID NO: 120, ATP BS
  inhibition at 1 µM: -2.54%
MMAB
  Inhibition (%) by 1 μM Z36-MP5: −4.08%
GARS
  Inhibition (%) by 1 μM Z36-MP5: 16.66%
ABCF2; ABCF2, SEQ ID NO: 17, ATP BS
  Inhibition (%) by 1 μM Z36-MP5: −7.92%
ABCF2; ABCF2, SEQ ID NO: 18, ATP BS
  Inhibition (%) by 1 μM Z36-MP5: 26.88%
PCCA; SEQ ID NO: 153, ATP BS
  Inhibition (%) by 1 μM Z36-MP5: −5.50%
PCCA; SEQ ID NO: 154, ATP BS
  Inhibition (%) by 1 μM Z36-MP5: −10.70%
HSPA8; HSPA8, SEQ ID NO: 106, ATP BS
  Inhibition (%) by 1 μM Z36-MP5: 3.27%
HSPA8; HSPA8, SEQ ID NO: 107, ATP BS
  Inhibition (%) by 1 μM Z36-MP5: 4.45%
PFAS
  Inhibition (%) by 1 μM Z36-MP5: −4.58%
PEX1
  Inhibition (%) by 1 μM Z36-MP5: −4.27%
TK2
  Inhibition (%) by 1 μM Z36-MP5: 14.43%
ATIC
  Inhibition (%) by 1 μM Z36-MP5: 4.08%
PSMC5
  Inhibition (%) by 1 μM Z36-MP5: −3.98%
